Reference: patent US10919885B2, “Compounds and uses thereof” (Yumanity Therapeutics, Inc., priority 2018, dated 2021)

Tests used:
[1] = molecular target: human SCD1 (Homo sapiens (Human), UniProt O00767); experiment: Yeast growth assay, strain expressing human SCD1 as the sole desaturase (reduced growth as surrogate for SCD inhibition); format: cell-based; details: yeast with OLE1 deleted expressing human SCD1 from a plasmid; growth read as OD600 after 40 h at 30° C.; top drug concentration 33.3 μM
Chain of human SCD1 (O00767 whole entry): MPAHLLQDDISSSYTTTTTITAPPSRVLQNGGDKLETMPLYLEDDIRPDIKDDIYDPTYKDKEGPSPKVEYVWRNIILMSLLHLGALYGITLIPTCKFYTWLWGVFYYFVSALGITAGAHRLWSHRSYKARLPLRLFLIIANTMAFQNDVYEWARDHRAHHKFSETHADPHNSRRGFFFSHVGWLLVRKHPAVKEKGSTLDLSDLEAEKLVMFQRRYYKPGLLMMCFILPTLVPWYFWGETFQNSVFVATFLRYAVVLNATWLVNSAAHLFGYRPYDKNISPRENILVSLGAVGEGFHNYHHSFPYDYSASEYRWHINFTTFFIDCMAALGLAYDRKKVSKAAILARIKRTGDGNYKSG
Summary of the method: (§1)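 Human SCD1 or SCD5 expressed from a plasmid in OLE1-deleted yeast as the sole desaturase. Cells washed free of Tween and fatty acids, grown with compound in SD-Ura glucose medium 40 h at 30 °C; growth measured as OD600, reduced growth taken as SCD inhibition.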

[2] = molecular target: human SCD5 (Homo sapiens (Human), UniProt Q86SK9); experiment: Yeast growth assay, strain expressing human SCD5 as the sole desaturase (reduced growth as surrogate for SCD inhibition); format: cell-based; details: yeast with OLE1 deleted expressing human SCD5 from a plasmid; growth read as OD600 after 40 h at 30° C.; top drug concentration 33.3 μM
Chain of human SCD5 (Q86SK9 whole entry): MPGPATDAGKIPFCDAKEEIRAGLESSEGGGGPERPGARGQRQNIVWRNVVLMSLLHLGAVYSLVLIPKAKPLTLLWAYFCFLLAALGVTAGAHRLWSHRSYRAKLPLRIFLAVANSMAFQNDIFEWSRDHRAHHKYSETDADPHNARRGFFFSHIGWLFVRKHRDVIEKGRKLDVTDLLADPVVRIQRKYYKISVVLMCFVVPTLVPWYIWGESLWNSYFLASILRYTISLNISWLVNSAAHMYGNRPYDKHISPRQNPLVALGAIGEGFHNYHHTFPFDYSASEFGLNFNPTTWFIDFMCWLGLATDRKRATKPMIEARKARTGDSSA
Summary of the method: as §1

SMILES | IC50 [1] [µM] | IC50 [2] [µM]
O=C(c1cc(-c2ccc3c(c2)OCO3)on1)N1CCN(c2cc(F)ccc2Cl)CC1 [Compound 299, [5-(1,3-benzodioxol-5-yl)isoxazol-3-yl]-[4-(2-chloro-5-fluoro-phenyl)piperazin-1-yl]methanone] | > 45 | 8.68
N#Cc1ccc2c(C(=O)N3CCC[C@H]3c3ccccc3)noc2c1 [Compound 456] | > 45 | > 45
O=C(Nc1cnn(Cc2cccc(F)c2)c1)c1cc(-c2ccncc2)on1 [Compound 56, N-(1-(3-fluorobenzyl)-1H-pyrazol-4-yl)-5-(pyridin-4-yl)isoxazole-3-carboxamide] | 2.41 | 2.69
O=C(c1cc(-c2ccccc2C(F)(F)F)on1)N1CCC(c2ccccc2)C1 (stereo not drawn) [Compound 346] | > 45 | 7.35
O=C(Nc1cnn(Cc2ccccc2)c1)c1cc(-c2ccc(F)cn2)on1 [Compound 137] | > 45 | > 45
O=C(c1cc(-c2ccc3c(c2)OCO3)on1)N1Cc2ccccc2C1 [Compound 328] | > 45 | > 45
CC1(C(=O)Nc2ccccc2)CN(C(=O)c2cc(-c3ccccc3)on2)C1 [Compound 238] | > 45 | > 45
O=C(c1cc(-c2ccccc2)on1)N1CCC(Oc2ccccc2)CC1 [Compound 288, (4-phenoxy-1-piperidyl)-(5-phenylisoxazol-3-yl)methanone] | > 45 | 4.16
O=C(c1cc(-c2ccccc2)on1)N1CC2(CNC2)C1 [Compound 345] | > 45 | > 45
O=C(Nc1cnn(Cc2ccccc2Cl)c1)c1cc(-c2cccc3cnn(C4COC4)c23)on1 [Compound 93] | > 45 | > 45
COc1ccc(C2CCCN2C(=O)c2cc(-c3ccc(OC)c(OC)c3)on2)cc1 (stereo not drawn) [Compound 374] | 32.2 | > 45
O=C(c1cc(-c2ccco2)on1)N1CC2(CCCC2)C1 [Compound 245] | > 45 | > 45
O=C(c1cc(-c2ccc3c(c2)OCO3)on1)N1CCCC1c1ncccc1Br (stereo not drawn) [Compound 447] | > 45 | > 45
O=C(Nc1cnn(CCc2ccccc2)c1)c1cc(-c2ccco2)on1 [Compound 24] | > 45 | > 45
CCOC(=O)c1cc(-c2cc(C(=O)Nc3cnn(Cc4cccc(F)c4)c3)no2)on1 [Compound 155] | > 45 | > 45
O=C(Nc1cnn(Cc2cccnc2)c1)c1cc(-c2ccccc2)on1 [Compound 39] | > 45 | > 45
O=C(Nc1cnn(Cc2ccccc2Cl)c1)c1cc(-c2cccc3cn(C4COC4)nc23)on1 [Compound 92] | > 45 | > 45
O=C(Nc1cnn(Cc2ccccc2)c1)c1cc(-c2cnsc2)on1 [Compound 146] | 11 | > 45
O=C(c1cc(-c2ccccc2)on1)N1CC2(C=C(c3ccccc3)C2)C1 [Compound 225, (6-phenyl-2-azaspiro[3.3]hept-6-en-2-yl)-(5-phenylisoxazol-3-yl)methanone] | > 45 | 6.41
C=C(C)c1cc(C(=O)Nc2cnn(Cc3cc(F)ccc3C(F)(F)F)c2)no1 [Compound 84] | > 45 | > 45
O=C(Nc1cn(Cc2ccccc2)nn1)c1cc(-c2ccccc2)on1 [Compound 44] | > 45 | > 45

SMILES | IC50 [1] [µM] | IC50 [2] [µM]
O=C(c1cc(-c2ccco2)on1)N(Cc1ccc(Cl)cc1)c1cnn(Cc2ccc(Cl)cc2)c1 [Compound 32] | > 45 | > 45
O=C(Nc1ccccc1)C1CN(C(=O)c2cc(-c3ccccc3)on2)C1 [Compound 237] | > 45 | > 45
O=C(Nc1cnn(Cc2ncccc2C(F)(F)F)c1)c1cc(-c2ccccc2F)on1 [Compound 196] | > 45 | > 45
Cc1nn(Cc2ccccc2)c(C)c1NC(=O)c1cc(-c2ccco2)on1 [Compound 2] | 32.8 | 38.6
O=C(c1cc(-c2ccc(F)cn2)on1)N1CC(c2ccccc2)C1 [Compound 243, (5-(5-fluoropyridin-2-yl)isoxazol-3-yl)(3-phenylazetidin-1-yl)methanone] | 1.6 | 1.5
O=C(Nc1cnn(Cc2cccc(F)c2)c1)c1cc(-c2cnccn2)on1 [Compound 45] | 23.1 | > 45
CN1CCN(c2cc(C(=O)Nc3cnn(Cc4ccccc4)c3)no2)CC1 [Compound 183] | > 45 | > 45
N#Cc1cccc(-c2cc(C(=O)Nc3cnn(Cc4ccccc4)c3)no2)c1 [Compound 127] | 4.62 | > 45
O=C(c1cc(-c2ccc3nccnc3c2)on1)N1CCC[C@H]1c1ccccc1 [Compound 450] | > 45 | > 45
O=C(c1cc(-c2ccccn2)on1)N1CCC(c2cccc(F)c2)C1 (stereo not drawn) [Compound 352] | > 45 | 9
O=C(Nc1cnn(Cc2ccccc2)n1)c1cc(-c2ccccc2)on1 [Compound 52] | > 45 | > 45
Cc1nn(Cc2ccc(Cl)c(Cl)c2)c(C)c1NC(=O)c1cc(-c2ccco2)on1 [Compound 3, N-(1-(3,4-dichlorobenzyl)-3,5-dimethyl-1H-pyrazol-4-yl)-5-(furan-2-yl)isoxazole-3-carboxamide] | > 45 | 7.15
CN1CCC2(CCN(C(=O)c3cc(-c4ccccc4)on3)C2)C1 (stereo not drawn) [Compound 342] | > 45 | > 45
O=C(c1cc(-c2ccc3c(c2)OCO3)on1)N1CC(O)C[C@H]1c1ccccc1 (stereo partly drawn) [Compound 414] | 30 | > 45
Cc1cc(C2CCCN2C(=O)c2cc(-c3ccc4c(c3)OCO4)on2)on1 (stereo not drawn) [Compound 353] | > 45 | > 45
O=C(c1cc(-c2ccc3c(c2)OCO3)on1)N1CCCC1c1cccnn1 (stereo not drawn) [Compound 391] | > 45 | > 45
Cn1cc(NC(=O)c2cc(-c3ccco3)on2)cn1 [Compound 10] | > 45 | > 45
O=C(Nc1cnn(Cc2cccc(F)c2)c1)c1cc(-c2cccnc2)on1 [Compound 55] | 0.59 | > 45
COc1ccc(-c2cc(C(=O)N3CC(c4cccc(F)c4)C3)no2)cc1OC [Compound 236] | 3.33 | 1.55
N#Cc1ccc(-c2cc(C(=O)N3CCC[C@H]3c3ccccc3)no2)cc1 [Compound 404] | > 45 | > 45
O=C(Nc1cnnc(Oc2ccccc2)c1)c1cc(-c2ccccc2)on1 [Compound 311] | > 45 | > 45

SMILES | IC50 [1] [µM] | IC50 [2] [µM]
Cn1nccc1C1CCCN1C(=O)c1cc(-c2ccc3c(c2)OCO3)on1 (stereo not drawn) [Compound 417] | > 45 | > 45
COc1ccc(-c2cc(C(=O)N3CCCC3c3ccc(OC)cc3)no2)cc1 (stereo not drawn) [Compound 376] | > 45 | > 45
O=C(c1cc(-c2ccccc2)on1)N1CCC(c2ccccc2F)C1 (stereo not drawn) [Compound 335] | > 45 | > 45
O=C(c1cc(-c2ccccc2)on1)N1CCC(c2ccccc2)C1 (stereo not drawn) [Compound 330] | > 45 | 2.6
CC(=O)N1CCN(c2cc(C(=O)Nc3cnn(Cc4ccccc4)c3)no2)CC1 [Compound 184] | 29 | > 45
Cn1cccc(-c2cc(C(=O)Nc3cnn(Cc4cccc(F)c4)c3)no2)c1=O [Compound 89] | 12 | > 45
Cc1cc(C2CCCN2C(=O)c2cc(-c3ccco3)on2)on1 (stereo not drawn) [Compound 357] | > 45 | > 45
N#Cc1ccc(-c2cc(C(=O)Nc3cnn(Cc4ccccc4)c3)no2)cc1 [Compound 128] | 0.98 | > 45
O=C(c1cc(-c2cccnc2)on1)N1CC(c2ccccc2)C1 [Compound 234, (3-phenylazetidin-1-yl)(5-(pyridin-3-yl)isoxazol-3-yl)methanone, trifluoroacetic acid] | 15.5 | 5.08
COc1ccccc1-c1cc(C(=O)N2CCC(c3ccccc3)CC2)no1 [Compound 320] | > 45 | > 45
O=C(c1noc2cc(Br)ccc12)N1CCC[C@H]1c1ccccc1 [Compound 449] | > 45 | 41.7
Cc1nnc(-c2cc(C(=O)Nc3cnn(Cc4cccc(F)c4)c3)no2)o1 [Compound 179] | > 45 | > 45
O=C(c1cc(-c2ccc3c(c2)OCO3)on1)N1CCCC1Cc1ccccc1 (stereo not drawn) [Compound 434] | > 45 | 4.67
O=C(Nc1cnn(Cc2ccccc2)c1)c1cc(-c2cccc(F)c2)on1 [Compound 144] | > 45 | > 45
O=C(c1cc(-c2ccccn2)on1)N1CCC(c2ccccc2)CC1 [Compound 318] | > 45 | 14.1
N#Cc1nn(Cc2ccccc2)cc1NC(=O)c1cc(-c2ccccc2)on1 [Compound 68] | > 45 | > 45
O=C(Nc1cnn(CC2CCOC2)c1)c1cc(-c2ccccc2)on1 (stereo not drawn) [Compound 50] | 25.5 | > 45
O=C(c1cc(-c2ccccc2)on1)N1CCC(c2ccccc2)CC1 [Compound 314, (5-phenylisoxazol-3-yl)(4-phenylpiperidin-1-yl)methanone] | > 45 | 1.63
O=C(Nc1cnn(Cc2ccccc2)c1)c1cc(-c2ccncc2)on1 [Compound 124, N-(1-benzyl-1H-pyrazol-4-yl)-5-(pyridin-4-yl)isoxazole-3-carboxamide] | 5.7 | 7
COc1ccc(C2CCCN2C(=O)c2cc(-c3ccc4ocnc4c3)on2)cc1 (stereo not drawn) [Compound 400] | > 45 | > 45
O=C(Nc1cnn(CC2CC2)c1)c1cc(-c2ccccc2)on1 [Compound 41] | > 45 | > 45
